ChEMBL document CHEMBL5727601, “Isoquinolones as BTK inhibitors” (2020)

Biological target: Tyrosine-protein kinase BTK (Homo sapiens, UniProt Q06187)
Experiment: Lanthscreen Eu Kinase Binding assay: A Lanthscreen Eu Kinase Binding assay (Life Technologies) was performed to quantitate the ability of test compounds to bind to BTK. The assay is based on the binding and displacement of Alexa Fluor647-labeled Kinase Tracer #236 to the ATP-binding site of human full length His-tagged BTK (Life Technologies cat # PV3587) with TR-FRET detection using a europium-labeled anti-His antibody. The assay was assembled in 384-well low volume NBS black plates (Corning) where 2 nM BTK and test compound in DMSO at varying concentrations were pre-incubated for 30 min at 28° C. in assay buffer consisting of 50 mM HEPES, pH 7.4, 10 mM MgCl2, 1 mM EGTA. 100 μM Na3VO4 and 0.01% Brij 35. Then, 2 nM of Eu-anti His antibody and 30 nM Kinase Tracer were added and incubated for […] at 28° C. Following incubation, TR-FRET signal was read on an Envision plate reader (Excitation: 340 nm; Emissions: 615 and 665 nm). The 665: 615 nm emission ratio was calculated and converted to POC compared to control and blank wells.

Tyrosine-protein kinase BTK, sequence (Q06187 whole entry): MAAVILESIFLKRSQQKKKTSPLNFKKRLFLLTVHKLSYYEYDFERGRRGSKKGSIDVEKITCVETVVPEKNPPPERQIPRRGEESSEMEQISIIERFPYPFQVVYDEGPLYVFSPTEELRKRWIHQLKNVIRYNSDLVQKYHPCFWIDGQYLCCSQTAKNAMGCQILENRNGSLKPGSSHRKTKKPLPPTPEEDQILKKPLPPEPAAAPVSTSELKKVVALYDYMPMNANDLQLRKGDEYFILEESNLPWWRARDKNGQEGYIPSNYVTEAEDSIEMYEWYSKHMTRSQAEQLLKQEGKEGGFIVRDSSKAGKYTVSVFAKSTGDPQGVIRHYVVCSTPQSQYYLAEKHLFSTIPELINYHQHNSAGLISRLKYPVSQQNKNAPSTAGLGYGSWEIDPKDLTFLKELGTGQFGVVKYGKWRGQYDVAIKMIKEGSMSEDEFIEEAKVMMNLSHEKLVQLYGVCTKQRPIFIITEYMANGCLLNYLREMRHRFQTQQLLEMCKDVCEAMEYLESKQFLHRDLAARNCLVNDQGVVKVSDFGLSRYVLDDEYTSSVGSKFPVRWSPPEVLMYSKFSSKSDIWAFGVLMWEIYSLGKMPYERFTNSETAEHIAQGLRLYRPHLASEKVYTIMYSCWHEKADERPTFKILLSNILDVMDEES

Compound C=CC(=O)N1CC(c2cc3cc(C4CC4)ccc3c(=O)n2-c2cccc(-c3ccnc(N)c3)c2CO)C1 has an IC50 of 0.9 nM.
